Source: patent US20110293653A1, “ANTAGONISTS OF MIR-155 FOR THE TREATMENT OF INFLAMMATORY LIVER DISEASE” (UNIVERSITY OF MASSACHUSETTS, priority 2010, published 2011)
Entries after “also recorded” stand apart in the source; their conditions may differ. Where a SMILES comes first, the peptide text is derived from it. The star is where a group is joined. Cbz = O=C(OCc1ccccc1)*

Tested on: miR155
Experiment: miR155 expression (qPCR) in RAW cells after ethanol and/or LPS stimulation with NF-κB inhibitor
Type: cell-based
Settings: RAW cells pretreated 48 h with ethanol (50 mM) and MG-132 (0.25 μM) or Bay 11-7082 (0.1 uM), LPS 100 ng/mL 2 h
Protocol: FIG. 8. […] RAW cells were exposed or not to ethanol (50 mM) and MG-132 (0.25 μM) for 48 hours and were further stimulated with LPS (100 ng/mL) for 2 hours. Expression of miR155 was assayed by qPCR and data were normalized to sno202 control. The fold increase in the expression of miR155 versus nonstimulated cells is shown. Data represent the mean value (s.e.m. as error bars) of at least three independent experiments. Statistically significant differences are shown.
C. Cell culture and reagents. RAW 264.7 macrophages were purchased from American Type Culture Collection and maintained in Dulbecco's modified medium (Invitrogen Life Technologies, Carlsbad, Calif.) containing 10% FBS (HyClone, South Logan, Utah) at 37° C. in a 5% CO2 atmosphere. […]
E. RNA analysis. RNA was purified using the RNeasy kit (Qiagen Sciences, Maryland, USA) or mirVana™ miRNA Isolation Kit (Ambion) if miRs were to be analyzed. […] Quantitative RT-PCR analyses for miR-125b, miR-146aa, miR155 and sno202, used as normalizing control, were performed using TaqMan miRNA assays with reagents, primers, and probes obtained from Ambion. […] Real-time quantitative polymerase chain reaction was performed using the iCycler (Bio-Rad Laboratories Inc., Hercules, Calif.), as described previously (Romics et al., supra). […] Relative expression was calculated using the comparative threshold cycle (Ct) method. […]

Structure (SMILES)	miR155 levels after ethanol and/or LPS stimulation
CC(C)C[C@@H](C=O)NC(=O)[C@H](CC(C)C)NC(=O)[C@H](CC(C)C)NC(=O)OCc1ccccc1 [MG-132] (Cbz-Leu-Leu-Leu-aldehyde)	decrease; also recorded: prevented miR155 increase
Cc1ccc(S(=O)(=O)/C=C/C#N)cc1 [Bay 11-7082]	decrease
